Experimental findings from patent publication US7238697B2, “Pyridylpyrimidines for use as pesticides” (Bayer CropScience AG, priority 2001, dated 2007) are described below.

Where two headings read alike, the source gives them in different places.

This data set can be described thus: log P determination by HPLC (reversed-phase C18), EEC Directive 79/831 Annex V.A8. The format is physicochemical. As to conditions: pH 2.3. As for the experimental part:
The stated log P values were determined in accordance with EEC Directive 79/831 Annex V.A8 by HPLC (High Performance Liquid Chromatography) using a reversed-phase column, (C 18). Temperature: 43° C. Mobile phases for the determination in the acidic range: 0.1% aqueous phosphoric acid, acetonitrile; linear gradient from 10% acetonitrile to 90% acetonitrile. Calibration was carried out using unbranched alkan-2-ones (having 3 to 16 carbon atoms) with known logP values (determination of the logP values by the retention times using linear interpolation between two successive alkanones).

Setting [1] is: reversed-phase C18 HPLC column, HPLC, reversed-phase C 18, 43° C., 0.1% aqueous phosphoric acid/acetonitrile, read-out: log P (pH 2.3).

As to `O=C(CSc1nccc(-c2ccccn2)n1)OCCN1CCCCC1` [Example 99], the chromatographic logP under setting [1] was found to be 1.04.

Regarding `Cc1ccc(C(C)NC(=O)CSc2nccc(-c3ccccn3)n2)cc1` (centres unmarked) [Example 57], the chromatographic logP under setting [1] came to 2.48.

Consider `Cc1scnc1CCOC(=O)CSc1nccc(-c2ccccn2)n1` [Example 197], for which the chromatographic logP under setting [1] amounted to 1.79.

Take `CN(C(=O)CSc1nccc(-c2ccccn2)n1)C1CCCCC1` [Example 61]: the chromatographic logP under setting [1] came to 2.67.

On to `CC(CN1CCOCC1)OC(=O)CSc1nccc(-c2ccccn2)n1` (centres unmarked) [Example 161], for which, under setting [1], the chromatographic logP worked out at 1.16.

Take `COCN(C)C(=O)COC(=O)CSc1nccc(-c2ccccn2)n1` [Example 230]: the chromatographic logP under setting [1] came out at 1.96.

As to `CC(C)(C)C1(COC(=O)CSc2nccc(-c3ccccn3)n2)COC1` [Example 211], the chromatographic logP under setting [1] came out at 2.75.

Regarding `CC(C)(C)OC(=O)CCCOC(=O)CSc1nccc(-c2ccccn2)n1` [Example 94], the chromatographic logP under setting [1] amounted to 3.48.

For `CC(C)CNC(=O)CSc1nccc(-c2ccccn2)n1` [Example 32], the chromatographic logP under setting [1] was 1.81.

As to `O=C(CSc1nccc(-c2ccccn2)n1)OCC1CCC(=O)O1` (centres unmarked) [Example 206], the chromatographic logP under setting [1] was 1.64.

For `COC(=O)CSc1nc(-c2ccccn2)cc(-c2ccccn2)n1` [Example 101], the chromatographic logP under setting [1] was found to be 2.81.

As for `CC(=O)OCCCCCOC(=O)CSc1nccc(-c2ccccn2)n1` [Example 93], under setting [1], the chromatographic logP was 2.82.

For the compound `O=C(O)CSc1nccc(-c2ccccn2)n1` [Example 11], the chromatographic logP under setting [1] is 1.14.

On to `CC(C)(C)c1ccc(NC(=O)NCCCOC(=O)CSc2nccc(-c3ccccn3)n2)cc1` [Example 130], for which the chromatographic logP under setting [1] worked out at 3.51.

As for `CCCOC(=O)CSc1nccc(-c2ccccn2)n1` [Example 16], the chromatographic logP under setting [1] is 2.76.

Turning to `COC(=O)C(Cc1cccc(Cl)c1)Sc1nccc(-c2ccccn2)n1` (centres unmarked) [Example 27], under setting [1], the chromatographic logP is 3.84.

Regarding `NC(=O)OCCOC(=O)CSc1nccc(-c2ccccn2)n1` [Example 177], the chromatographic logP was 1.41.

As for `O=C(CSc1nccc(-c2ccccn2)n1)OCC1CCCC1` [Example 154], the chromatographic logP under setting [1] was found to be 3.6.

Turning to `O=C(CSc1nccc(-c2ccccn2)n1)OC1CC(F)(F)C1(F)F` (centres unmarked) [Example 221], the chromatographic logP under setting [1] was 3.

As to `CN(C=O)CCOC(=O)CSc1nccc(-c2ccccn2)n1` [Example 217], the chromatographic logP under setting [1] was found to be 1.4.

Take `CCN(CC)C(=O)CSc1nccc(-c2ccccn2)n1` [Example 28]: the chromatographic logP under setting [1] was determined as 1.8.

`COC(=O)C(Sc1nccc(-c2ccccn2)n1)c1ccccc1` (centres unmarked) [Example 26]: the chromatographic logP under setting [1] was found to be 3.5.

Take `CCOC(=O)CCCOC(=O)CSc1nccc(-c2ccccn2)n1` [Example 84]: the chromatographic logP under setting [1] came out at 2.72.

On to `O=C(CSc1nccc(-c2ccccn2)n1)OCCN1CCNC1=S` [Example 160], for which the chromatographic logP under setting [1] worked out at 1.59.

For `CCOC(=O)C1CC1COC(=O)CSc1nccc(-c2ccccn2)n1` (centres unmarked) [Example 199], the chromatographic logP under setting [1] was found to be 2.64.

Turning to `O=C(CSc1nccc(-c2ccccn2)n1)NCCc1cccc(C(F)(F)F)c1` [Example 42], under setting [1], the chromatographic logP was determined as 2.82.

As to `CCCOC(=O)C(Sc1nccc(-c2ccccn2)n1)C(C)C` (centres unmarked) [Example 80], the chromatographic logP under setting [1] stood at 3.96.

In the case of `CCC1(COC(=O)CSc2nccc(-c3ccccn3)n2)COCOC1` [Example 222], under setting [1], the chromatographic logP came to 2.51.

For `CN(Cc1ccc(Cl)nc1)C(=O)CSc1nccc(-c2ccccn2)n1` [Example 49], the chromatographic logP under setting [1] came to 2.01.

As for `O=C(CSc1nccc(-c2ccccn2)n1)NC1CCCCC1` [Example 63], the chromatographic logP under setting [1] is 2.31.

In the case of `c1ccc(-c2ccnc(SCc3nn[nH]n3)n2)nc1` [Example 299], under setting [1], the chromatographic logP is 1.17.

As to `CCOC(=O)CSc1nccc(-c2ccccn2)n1` [Example 13], the chromatographic logP under setting [1] was determined as 2.17.

As for `CC1(C)OCC(CCOC(=O)CSc2nccc(-c3ccccn3)n2)O1` (centres unmarked) [Example 193], the chromatographic logP under setting [1] was determined as 2.46.

As to `CC(OC(=O)CSc1nccc(-c2ccccn2)n1)C(F)(F)F` (centres unmarked) [Example 121], the chromatographic logP under setting [1] came out at 3.06.

For the compound `COC(COC(=O)CSc1nccc(-c2ccccn2)n1)OC` [Example 164], the chromatographic logP under setting [1] stood at 2.05.

Take `COC(=O)C(Sc1nccc(-c2ccccn2)n1)C(=O)OC` [Example 24]: under setting [1], the chromatographic logP is 2.16.

`COC(=O)CSc1nc(-c2ccccn2)c2cc(Cl)ccc2n1` [Example 77]: the chromatographic logP under setting [1] is 3.46.

Regarding `CN1CCC(COC(=O)CSc2nccc(-c3ccccn3)n2)O1` (centres unmarked) [Example 220], the chromatographic logP under setting [1] turned out to be 1.12.

For the compound `NC(=O)COC(=O)CSc1nccc(-c2ccccn2)n1` [Example 163], the chromatographic logP under setting [1] was found to be 1.11.

For `CN(C)C(=O)SCCOC(=O)CSc1nccc(-c2ccccn2)n1` [Example 178], the chromatographic logP under setting [1] was 2.2.

As to `C=CCNC(=O)CSc1nccc(-c2ccccn2)n1` [Example 70], the chromatographic logP under setting [1] worked out at 1.65.

For the compound `O=C(NCCCOC(=O)CSc1nccc(-c2ccccn2)n1)Nc1cccc2c1CCCC2` [Example 133], under setting [1], the chromatographic logP came to 3.06.

Regarding `CCOC(=O)CSc1nccc(-c2ccc(C)cn2)n1` [Example 128], under setting [1], the chromatographic logP amounted to 2.5.

For the compound `O=C(CSc1nccc(-c2ccccn2)n1)OCC(F)(F)F` [Example 117], the chromatographic logP under setting [1] stood at 2.69.

For `COC(=O)CS(=O)(=O)c1nccc(-c2ccccn2)n1` [Example 12], the chromatographic logP under setting [1] was found to be 1.37.

For the compound `COC(=O)CSc1nc(-c2ccccn2)cc(-c2ccco2)n1` [Example 106], the chromatographic logP under setting [1] is 3.01.

On to `NNC(=O)CSc1nccc(-c2ccccn2)n1` [Example 134], for which the chromatographic logP under setting [1] is 0.43.

For the compound `O=C(CSc1nccc(-c2ccccn2)n1)OCCCN1CCCC1=O` [Example 165], the chromatographic logP under setting [1] is 1.64.

With `CCOC(=O)CSc1nc(C)cc(-c2ccccn2)n1` [Example 4, ethyl {[4-methyl-6-(2-pyridinyl)-2-pyrimidinyl]thio}acetate], the chromatographic logP under setting [1] stood at 2.45.

As to `CC(NC(=O)CSc1nccc(-c2ccccn2)n1)c1ccc(Cl)cc1` (centres unmarked) [Example 50], the chromatographic logP under setting [1] worked out at 2.58.

In the case of `O=C(CSc1nccc(-c2ccccn2)n1)OC1CS(=O)(=O)C1` [Example 173], under setting [1], the chromatographic logP came out at 1.67.

For the compound `CC(C)(C)c1ccc(NC(=O)NCCOC(=O)CSc2nccc(-c3ccccn3)n2)cc1` [Example 148], under setting [1], the chromatographic logP came to 3.35.

For `N#CCCCCOC(=O)CSc1nccc(-c2ccccn2)n1` [Example 95], the chromatographic logP under setting [1] stood at 2.29.

For `CON(C)C(=O)COC(=O)CSc1nccc(-c2ccccn2)n1` [Example 234], the chromatographic logP under setting [1] stood at 1.97.

For the compound `CCOC(=O)/C=C(/CSc1nccc(-c2ccccn2)n1)OCC` [Example 311], the chromatographic logP under setting [1] worked out at 3.39.

In the case of `O=C(CSc1nccc(-c2ccccn2)n1)N1CCCCC1` [Example 66], the chromatographic logP under setting [1] turned out to be 2.09.

Turning to `C=CC(C)(C)COC(=O)CSc1nccc(-c2ccccn2)n1` [Example 168], the chromatographic logP under setting [1] is 3.48.

With `CCOC(=O)CSc1nccc(-c2ncccc2C)n1` [Example 265], the chromatographic logP under setting [1] was 1.85.

In the case of `O=C(CSc1nccc(-c2ccccn2)n1)OCCc1ccccc1` [Example 83], the chromatographic logP under setting [1] came to 3.37.

For `O=C(CSc1nccc(-c2ccccn2)n1)OC1COCOC1` [Example 127], the chromatographic logP under setting [1] was 1.76.

With `COC(=O)CSc1nc(-c2ccc(OC)cc2)cc(-c2ccccn2)n1` [Example 107], the chromatographic logP under setting [1] came to 3.5.

On to `CCOC(=O)CSc1nccc(-c2ccc(SC)cn2)n1` [Example 317], for which the chromatographic logP under setting [1] was 1.68.

As for `CCOC(=O)CSc1nccc(-c2ncccc2OC)n1` [Example 268], under setting [1], the chromatographic logP was 1.34.

As to `CCOC(=O)CSc1nccc(-c2ncccc2C(F)(F)F)n1` [Example 269], the chromatographic logP under setting [1] was 2.53.

With `CCOC(=O)CSc1nccc(-c2cc(OC)ccn2)n1` [Example 261], the chromatographic logP under setting [1] was determined as 1.62.

In the case of `Cc1ccc(CCNC(=O)CSc2nccc(-c3ccccn3)n2)cc1` [Example 56], the chromatographic logP under setting [1] was found to be 2.56.

Take `CSCC(C)(C)COC(=O)CSc1nccc(-c2ccccn2)n1` [Example 186]: the chromatographic logP under setting [1] turned out to be 3.46.

`CCOCCOC(=O)CSc1nccc(-c2ccccn2)n1` [Example 98]: under setting [1], the chromatographic logP is 2.34.

For `CSc1nccc(-c2ccccn2)n1` [2-(methylthio)-4-(2-pyridinyl)pyrimidine], the chromatographic logP under setting [1] worked out at 1.93.

`COC(=O)CCCSc1nccc(-c2ccccn2)n1` [Example 76]: the chromatographic logP under setting [1] is 2.35.

`CCOC(=O)C(F)Sc1nccc(-c2ccccn2)n1` (centres unmarked) [Example 113]: under setting [1], the chromatographic logP is 2.55.

On to `O=C(CSc1nccc(-c2ccccn2)n1)OC(C(F)(F)F)C(F)(F)F` [Example 120], for which the chromatographic logP under setting [1] stood at 3.59.

With `COC(C)(C)COC(=O)CSc1nccc(-c2ccccn2)n1` [Example 179], under setting [1], the chromatographic logP was determined as 2.29.

Regarding `CCOC(=O)C(OC(=O)CSc1nccc(-c2ccccn2)n1)C(C)C` (centres unmarked) [Example 243], the chromatographic logP under setting [1] is 3.2.

As to `O=C(CSc1nccc(-c2ccccn2)n1)N1CCCC1` [Example 68], the chromatographic logP under setting [1] amounted to 1.75.

For the compound `O=C(CSc1nccc(-c2ccccn2)n1)OCC(Cl)(Cl)Cl` [Example 125], under setting [1], the chromatographic logP is 3.31.

For `COC(=O)CSc1nc(-c2ccccc2)cc(-c2ccccn2)n1` [Example 109], under setting [1], the chromatographic logP amounted to 3.57.

For the compound `COC(=O)CCCCSc1nccc(-c2ccccn2)n1` [Example 79], under setting [1], the chromatographic logP was 2.68.

As for `CCOC(=O)CSc1nccc(-c2ccc(C(F)(F)F)cn2)n1` [Example 257], the chromatographic logP under setting [1] was found to be 3.48.

In the case of `O=C(CSc1nccc(-c2ccccn2)n1)NCc1cc(C(F)(F)F)cc(C(F)(F)F)c1` [Example 137], the chromatographic logP under setting [1] came to 3.22.
